Source: patent publication US11896010B2, “Uracil compound and use thereof” (Sumitomo Chemical Company, Limited, priority 2018, dated 2024)

Key:
Assay type in all cases: in vivo
corn = assay: Test Example 1: post-emergence foliage spray pot test in greenhouse, safety (phytotoxicity) against a useful plant; settings: for phytotoxicity score (0 to 100), corn: foliar spray 204 L/ha on plants grown 15 days, evaluated after 11 days, 0 = same as untreated, 100 = completely dead
Protocol: (§1) Next, weed control efficacies of the Compound A and safety (phytotoxicity) of the Compound A against a useful plant are shown by a Test Example.
(§2) Here the “untreated group” represents a group where the same treatment procedure as that of the treated group except not using the Compound A is done.
(§3) A plastic pot was filled with soil, thereto Amaranthus retroflexus, Ipomoea hederacea, and corn were seeded, and they were grown in a greenhouse for 15 days. Separately, a prescribed amount of a formulation prepared according to the process described in the Formulation Example 1 was diluted with water comprising 1% of Agridex (registered trademark) to obtain a diluent. Said diluent was homogeneously sprayed from above of said plants in a ratio of 204 L/ha such that the applied amount of the Compound A was 80 gai/ha or 40 gai/ha. Then, said plants were grown in a greenhouse for 11 days and evaluated according to the above criteria.
(§4) The Compound B was used instead of the Compound A to carry out the same test as the Test Example 1.

Amaranthus retroflexus = assay: Test Example 1: post-emergence foliage spray pot test in greenhouse, weed control efficacy; settings: for weed control efficacy score (0 to 100), Amaranthus retroflexus: foliar spray 204 L/ha on plants grown 15 days, evaluated after 11 days, 0 = same as untreated, 100 = completely dead; for weed control efficacies against Amaranthus retroflexus (in words): summary of the test at 80 and 40 gai/ha
Protocol: as §1, §2, §3, §4

Ipomoea hederacea = assay: as above; settings: for weed control efficacy score (0 to 100), Ipomoea hederacea: foliar spray 204 L/ha on plants grown 15 days, evaluated after 11 days, 0 = same as untreated, 100 = completely dead; for weed control efficacies against Ipomoea hederacea (in words): summary of the test at 80 and 40 gai/ha
Protocol: as §1, §2, §3, §4

Compound	phytotoxicity against corn (in words) (corn; in vivo)	weed control efficacy score (0 to 100), Amaranthus retroflexus (Amaranthus retroflexus; applied amount 40 gai/ha)	weed control efficacy score (0 to 100), Amaranthus retroflexus (Amaranthus retroflexus; applied amount 80 gai/ha)	weed control efficacies against Amaranthus retroflexus (in words) (Amaranthus retroflexus)	weed control efficacy score (0 to 100), Ipomoea hederacea (Ipomoea hederacea; applied amount 40 gai/ha)	weed control efficacy score (0 to 100), Ipomoea hederacea (Ipomoea hederacea; applied amount 80 gai/ha)	weed control efficacies against Ipomoea hederacea (in words) (Ipomoea hederacea)	phytotoxicity score (0 to 100), corn (corn; applied amount 40 gai/ha)	phytotoxicity score (0 to 100), corn (corn; applied amount 80 gai/ha)	phytotoxicity against corn (in words) (corn; summary of the test at 80 and 40 gai/ha)
CCOC(=O)COc1nc(-n2c(=O)cc(C(F)(F)F)n(C)c2=O)ccc1Oc1cc(-n2c(=O)cc(C(F)(F)F)n(C)c2=O)c(F)cc1Cl [Compound A]	low phytotoxicity	100	100	high weed control efficacies	95	100	high weed control efficacies			
CCOC(=O)COc1ncccc1Oc1cc(-n2c(=O)cc(C(F)(F)F)n(C)c2=O)c(F)cc1Cl [Compound B]		100	100	high weed control efficacies	100	100	high weed control efficacies	100	100	high phytotoxicity
